# From PMC8708580, “Structure Revision and Protein Tyrosine Phosphatase Inhibitory Activity of Drazepinone” (Marine Drugs, 2021)
# pIC50: −log10 of the molar value. Like-named read-outs stand apart in the source and are kept apart here.
# Assays:
# PTP1B = target: T1, PTP1B (Homo sapiens, UniProt P18031); assay: PTP inhibitory activity assay, PTP1B; format: biochemical; conditions: in vitro; Na3VO4 positive control
# T1 sequence (P18031 1-435): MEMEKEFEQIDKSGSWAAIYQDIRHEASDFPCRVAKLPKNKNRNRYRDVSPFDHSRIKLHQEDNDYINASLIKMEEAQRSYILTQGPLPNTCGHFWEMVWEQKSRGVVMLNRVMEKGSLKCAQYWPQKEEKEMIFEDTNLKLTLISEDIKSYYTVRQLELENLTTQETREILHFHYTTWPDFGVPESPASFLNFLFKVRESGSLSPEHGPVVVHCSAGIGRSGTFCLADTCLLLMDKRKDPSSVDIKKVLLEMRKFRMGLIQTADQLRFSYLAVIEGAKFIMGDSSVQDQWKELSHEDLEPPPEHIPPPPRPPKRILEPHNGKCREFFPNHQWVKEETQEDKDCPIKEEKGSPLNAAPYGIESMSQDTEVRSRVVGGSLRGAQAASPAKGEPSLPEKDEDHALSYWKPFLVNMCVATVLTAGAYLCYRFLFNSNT
# Experimental: Thus, the isolated compounds (+)-1 and (−)-1 were tested for their PTP inhibitory activity against PTP1B, TCPTP, SHP1, and CD45.
# PTP inhibitory activity of (+)-1 and (−)-1 against PTP1B, TCPTP, SHP1, and CD45 was tested in the same way as that described in the literature.
# TCPTP = target: T2, TCPTP (Homo sapiens, UniProt P17706); assay: PTP inhibitory activity assay, TCPTP; format: biochemical; conditions: in vitro; Na3VO4 positive control
# T2 sequence (P17706 1-415): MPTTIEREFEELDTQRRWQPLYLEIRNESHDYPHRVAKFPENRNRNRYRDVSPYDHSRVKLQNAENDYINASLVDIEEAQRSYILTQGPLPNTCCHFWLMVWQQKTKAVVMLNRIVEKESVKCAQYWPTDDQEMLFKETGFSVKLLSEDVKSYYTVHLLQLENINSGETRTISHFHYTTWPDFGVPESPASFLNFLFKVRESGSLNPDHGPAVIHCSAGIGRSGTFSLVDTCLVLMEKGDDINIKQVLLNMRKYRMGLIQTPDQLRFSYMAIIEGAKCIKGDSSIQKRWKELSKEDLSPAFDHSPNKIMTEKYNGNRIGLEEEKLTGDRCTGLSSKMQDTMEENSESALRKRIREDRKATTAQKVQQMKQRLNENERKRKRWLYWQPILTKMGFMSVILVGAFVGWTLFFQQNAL
# Experimental: (§1) Protein tyrosine phosphatases (PTPs), including PTP1B, T-cell PTP (TCPTP), Src homology-2 domain-containing PTP-1 (SHP1), and CD45 PTP (CD45), a family of enzymes that hydrolytically remove phosphate groups from proteins, have attracted much attention recently for drug discovery. […] Thus, the isolated compounds (+)-1 and (−)-1 were tested for their PTP inhibitory activity against PTP1B, TCPTP, SHP1, and CD45.
# (§2) PTP inhibitory activity of (+)-1 and (−)-1 against PTP1B, TCPTP, SHP1, and CD45 was tested in the same way as that described in the literature. Na3VO4 was used as the positive control.
# CD45 = target: T3, CD45 (Homo sapiens, UniProt P08575); assay: PTP inhibitory activity assay, CD45; format: biochemical
# T3 sequence (P08575 26-1306): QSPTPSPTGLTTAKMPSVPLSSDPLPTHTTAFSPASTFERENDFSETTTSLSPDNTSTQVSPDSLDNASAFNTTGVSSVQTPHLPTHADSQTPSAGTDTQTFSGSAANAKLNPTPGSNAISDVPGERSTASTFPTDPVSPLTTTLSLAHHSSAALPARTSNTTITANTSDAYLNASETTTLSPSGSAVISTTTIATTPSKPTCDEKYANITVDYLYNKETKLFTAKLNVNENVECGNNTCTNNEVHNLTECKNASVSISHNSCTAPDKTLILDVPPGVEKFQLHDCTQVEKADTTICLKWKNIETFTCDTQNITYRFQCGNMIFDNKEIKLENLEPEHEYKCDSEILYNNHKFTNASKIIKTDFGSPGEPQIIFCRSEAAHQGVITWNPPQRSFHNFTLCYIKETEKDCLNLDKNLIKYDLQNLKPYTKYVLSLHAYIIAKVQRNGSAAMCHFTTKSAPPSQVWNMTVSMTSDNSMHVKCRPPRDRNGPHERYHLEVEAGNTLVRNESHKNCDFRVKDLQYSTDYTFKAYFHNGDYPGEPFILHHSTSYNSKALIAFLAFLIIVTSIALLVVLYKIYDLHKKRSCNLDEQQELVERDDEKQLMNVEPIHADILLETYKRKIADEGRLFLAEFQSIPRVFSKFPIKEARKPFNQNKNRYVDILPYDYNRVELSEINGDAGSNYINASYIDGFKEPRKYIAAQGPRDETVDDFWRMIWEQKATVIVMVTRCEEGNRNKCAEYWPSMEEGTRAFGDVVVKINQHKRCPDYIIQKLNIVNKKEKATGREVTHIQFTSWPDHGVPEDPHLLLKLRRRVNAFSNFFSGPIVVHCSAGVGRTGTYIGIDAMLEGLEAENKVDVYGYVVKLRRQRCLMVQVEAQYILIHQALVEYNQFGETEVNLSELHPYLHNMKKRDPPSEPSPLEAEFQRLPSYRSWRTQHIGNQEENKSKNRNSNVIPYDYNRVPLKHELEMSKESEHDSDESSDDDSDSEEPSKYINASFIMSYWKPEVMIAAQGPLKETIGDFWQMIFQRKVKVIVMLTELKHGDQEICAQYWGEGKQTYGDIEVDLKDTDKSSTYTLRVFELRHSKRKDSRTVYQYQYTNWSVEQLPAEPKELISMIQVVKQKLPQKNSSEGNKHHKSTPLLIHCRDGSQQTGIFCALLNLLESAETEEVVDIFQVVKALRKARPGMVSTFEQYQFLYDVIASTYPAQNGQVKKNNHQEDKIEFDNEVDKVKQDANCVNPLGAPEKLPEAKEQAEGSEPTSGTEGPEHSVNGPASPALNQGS
# Experimental: as §1, §2
# [1] = parameters: method as in PMID 15771896; conditions: at a concentration of 2.0 μg/μL; cited from earlier work
# [2] = parameters: method as in PMID 15771896; conditions: at a concentration of 2.0 μg/μL; cited from earlier work; remark: listed apart in the source
# [3] = in vitro, Na3VO4 positive control
SMILES,pIC50 (PTP1B),IC50 PTP1B (PTP1B),pIC50 (TCPTP),IC50 TCPTP (TCPTP),pIC50 (CD45),IC50 CD45 (CD45; [3]),pIC50 (CD45; [3]),herbicidal properties [1],zootoxic activity [2]
"CC1=CC2(C)Oc3c(-c4ccccc4)c[nH]c(=O)c3C2C1C (single isomer, unassigned; (+)) [(+)-1]",< 4.07,no activity,< 4.07,no activity,< 4.07,no activity,,,
"CC1=CC2(C)Oc3c(-c4ccccc4)c[nH]c(=O)c3C2C1C (single isomer, unassigned; (-)) [(−)-1]",5.27,,4.37,,,,< 4.07,,
"[Na+].[Na+].[Na+].[O]=[V]([O-])([O-])[O-] [Na3VO4, reference compound]",,,,3.13 µg/mL,,6.25 µg/mL,,,
"CC1=CC(C)C2c3cc4ccccc4cc3OC2(C)NC1=O (stereo not shown) [drazepinone, Drazepinone]",,,,,,,,broad-spectrum herbicidal properties,low zootoxic activity
